Experimental data taken from patent publication US9303015B2, “Heteroaryl linked quinolinyl modulators of RORγt” (Janssen Pharmaceutica NV, priority 2012, dated 2016).
Values joined by “and” are separate entries in the source; they are usually repeats but may differ in a detail not shown here. Identical values can stand only once. Counter-ions that a name gives are not always drawn.

How the values were obtained:
human RORγt LBD = human RORγt LBD (Homo sapiens (Human), UniProt P51449); assay: RORγt reporter assay (GAL4-RORγt LBD luciferase, HEK293T cells); format: cell-based; settings: for IC50: HEK293T cells, 24 hours compound treatment; for inhibition at 6 µM: HEK-293T, read-out: RORγt reporter Assay, % inhibition @ 6 μM, 6 μM, HEK293T cells
[1] = test system: IL-17 production by CD4 T cells; assay: Human Th17 assay; format: cell-based; settings: Homo sapiens, CD4+ T, 72 h, IL-17 in supernatant after 3 days, human CD4+ T cells under Th17 differentiation
Description: The human Th17 assay tests the effect of RORγt modulatory compounds on IL-17 production by CD4 T cells under conditions which favor Th17 differentiation.
Total CD4^+ T cells were isolated from the peripheral blood mononuclear cells (PBMC) of healthy donors using a CD4^+ T cell isolation kit II, following the manufacturer's instructions (Miltenyi Biotec). Cells were resuspended in a medium of RPMI-1640 supplemented with 10% fetal bovine serum, penicillin, streptomycin, glutamate, and β-mercaptoethanol and were added to 96-well plates at 1.5×10^5 per 100 μL per well. 50 μL of compound at titrated concentrations in DMSO were added into each well at final DMSO concentration at 0.2%. Cells were incubated for 1 hour, then 50 μL of Th17 cell differentiation medium was added to each well. The final concentrations of antibodies and cytokines (R&D Systems) in differentiation medium were: 3×10^6/mL anti-CD3/CD28 beads (prepared using human T cell activation/expansion kit, Miltenyi Biotec), 10 μg/mL anti-IL4, 10 μg/mL anti-IFNγ, 10 ng/mL IL113, 10 ng/mL IL23, 50 ng/mL IL6, 3 ng/mL TGFβ and 20 U/mL IL2. Cells were cultured at 37° C. and 5% CO2 for 3 days. Supernatants were collected and the accumulated IL-17 in culture was measured by using MULTI-SPOT® Cytokine Plate following manufacture's instruction (Meso Scale Discovery). The plate was read using Sector Imager 6000, and IL-17 concentration was extrapolated from the standard curve. The IC50s were determined by GraphPad.

[2] = target: human RORγt ligand binding domain (RORγt LBD) (Homo sapiens (Human), UniProt P51449); assay: RORγt ThermoFluor assay (thermal shift, binding affinity); settings: estimated from thermal shift concentration response
Procedure: This approach is applicable to a wide variety of systems, and rigorous in theoretical interpretation through quantitation of equilibrium binding constants (KD).
The shift in the melting point described as a ΔTm is proportional to the concentration and affinity of the ligand.
ThermoFluor® experiments were carried out using instruments owned by Janssen Research and Discovery, L.L.C. through its acquisition of 3-Dimensional Pharmaceuticals, Inc. 1,8-ANS (Invitrogen) was used as a fluorescent dye. Protein and compound solutions are dispensed into black 384-well polypropylene PCR microplates (Abgene) and overlayed with silicone oil (1 μL, Fluka, type DC 200) to prevent evaporation.
Bar-coded assay plates are robotically loaded onto a thermostatically controlled PCR-type thermal block and then heated at a typical ramp-rate of 1° C./min for all experiments. Fluorescence was measured by continuous illumination with UV light (Hamamatsu LC6) supplied via fiber optic and filtered through a band-pass filter (380-400 nm; >60D cutoff). Fluorescence emission of the entire 384-well plate was detected by measuring light intensity using a CCD camera (Sensys, Roper Scientific) filtered to detect 500±25 nm, resulting in simultaneous and independent readings of all 384 wells. Images were collected at each temperature, and the sum of the pixel intensity in a given area of the assay plate was recorded versus temperature. Reference wells contained RORγt without compounds, and the assay conditions were as follows: • 0.065 mg/mL RORγt • 60 μM 1,8-ANS • 100 mM Hepes, pH 7.0 • 10 mM NaCl • 2.5 mM GSH • 0.002% Tween-20
Project compounds were arranged in a pre-dosed mother plate (Greiner Bio-one) wherein compounds are serially diluted in 100% DMSO by 1:2 from a high concentration of 10 mM over 12 columns within a series (column 12 is a reference well containing DMSO, no compound). The compounds were robotically dispensed directly into assay plates (1x=[…]) using a Hummingbird capillary liquid handling instrument (Digilab). Following compound dispense, protein and dye in buffer was added to achieve the final assay volume of 3 μL, followed by 1 μL of silicone oil.

human RORγt LBD, sequence (P51449 258-518): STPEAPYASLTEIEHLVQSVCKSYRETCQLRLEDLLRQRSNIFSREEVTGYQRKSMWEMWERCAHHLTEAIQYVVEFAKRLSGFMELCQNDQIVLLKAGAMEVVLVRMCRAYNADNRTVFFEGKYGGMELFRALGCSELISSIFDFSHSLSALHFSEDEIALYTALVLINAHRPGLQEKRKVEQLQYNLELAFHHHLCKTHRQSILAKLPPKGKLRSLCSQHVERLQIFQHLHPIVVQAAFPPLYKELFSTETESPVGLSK
human RORγt ligand binding domain (RORγt LBD), sequence (P51449 other isoform, or with tags, fused parts or gaps): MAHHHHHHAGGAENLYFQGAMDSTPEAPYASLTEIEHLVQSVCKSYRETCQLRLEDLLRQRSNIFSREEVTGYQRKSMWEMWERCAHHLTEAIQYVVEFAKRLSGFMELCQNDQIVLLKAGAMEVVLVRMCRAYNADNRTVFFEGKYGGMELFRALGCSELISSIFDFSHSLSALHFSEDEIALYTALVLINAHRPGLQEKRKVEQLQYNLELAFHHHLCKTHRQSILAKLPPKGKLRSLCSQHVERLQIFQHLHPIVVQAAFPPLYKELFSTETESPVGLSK

Row | Structure (SMILES) | IC50 (human RORγt LBD) | inhibition at 6 µM (human RORγt LBD) | IC50 [1] | Kd [2]
1 | CCN(CC)c1nc2ccc(C(O)(c3ccc(Cl)cc3)c3cncn3C)cc2c(Cl)c1Oc1ccccc1 (stereo not shown) [Example 3a, (4-Chloro-2-(diethylamino)-3-phenoxyquinolin-6-yl)(4-chlorophenyl)(1-methyl-1H-imidazol-5-yl)methanol] | 0.12 µM | 96% | 0.2 µM | 0.059 µM
2 | Cn1cncc1C(O)(c1ccc(Cl)cc1)c1ccc2nc(C#N)c(Oc3ccccc3)c(C#N)c2c1 (stereo not shown) [Example 20, 6-((4-chlorophenyl)(hydroxy)(1-methyl-1H-imidazol-5-yl)methyl)-3-phenoxyquinoline-2,4-dicarbonitrile.TFA] | 0.11 µM | 97% | 0.04 µM | 0.0057 µM
3 | CCOc1nc2ccc(C(O)(c3cccnc3)c3cccc(Cl)c3)cc2c(Cl)c1N(C)c1ccccc1 (stereo not shown) [Example 36, (4-Chloro-2-ethoxy-3-(methyl(phenyl)amino)quinolin-6-yl)(3-chlorophenyl) (pyridin-3-yl)methanol.TFA] | 0.089 µM | 89% | 0.16 µM | 0.032 µM
4 | CN(C)c1nc2ccc(C(O)(c3ccc(Cl)cc3)c3cncn3C)cc2c(Cl)c1Oc1ccccc1 (stereo not shown) [Example 16, (4-Chloro-2-(dimethylamino)-3-phenoxyquinolin-6-yl)(4-chlorophenyl)(1-methyl-1H-imidazol-5-yl)methanol] | 0.36 µM | 94% | 0.1 µM | 0.031 µM
5 | CN(c1ccccc1)c1c(Cl)nc2ccc(C(O)(c3ccc(Cl)cc3)c3cncn3C)cc2c1Cl (stereo not shown) [Example 38, (4-Chlorophenyl)(2,4-dichloro-3-(methyl(phenyl)amino)quinolin-6-yl)(1-methyl-1H-imidazol-5-yl)methanol] | 0.52 µM and ~1 µM | 85% |  | 0.035 µM
6 | Cn1cncc1C(O)(c1ccc(C(F)(F)F)nc1)c1ccc2nc(N3CCC3)c(Oc3ccc(Cl)cc3)c(Cl)c2c1 (stereo not shown) [Example 30a, (2-(Azetidin-1-yl)-4-chloro-3-(4-chlorophenoxy)quinolin-6-yl)(1-methyl-1H-imidazol-5-yl)(6-(trifluoromethyl)pyridin-3-yl)methanol] | 0.14 µM | 93% |  | 0.0018 µM
